From ChEMBL document CHEMBL3525951, “Reevaluation of the microsomal metabolism of montelukast: major contribution by CYP2C8 at clinically relevant concentrations” (Drug Metab Dispos, 2011)
pKi: −log10 of the molar value.

Experiments:
Liver microsome [1] = experiment: Drug metabolism in human liver microsomes at 1 to 10 uM preincubated for 3 mins followed by beta-NADPH addition by LC-MS analysis in presence of albumin; assay type: ADME
Liver microsome [2] = experiment: Drug metabolism in human liver microsomes assessed as 2-(1-(((S)-1-(3-(2-(7-chloroquinolin-2-yl)vinyl)phenyl)-3-(2-(2-hydroxypropan-2-yl)phenyl)propylsulfinyl)methyl)cyclopropyl)acetic acid formation at 0.02 to 0.4 uM preincubated for 3 mins followed by beta-NADPH addition by LC-MS analysis; assay type: ADME
Liver microsome [3] = experiment: Drug metabolism in human liver microsomes assessed as (R)-2-(1-((1-(3-(2-(7-chloroquinolin-2-yl)vinyl)phenyl)-3-(4-hydroxy-2-(2-hydroxypropan-2-yl)phenyl)propylthio)methyl)cyclopropyl)acetic acid formation at 0.02 to 0.4 uM preincubated for 3 mins followed by beta-NADPH addition by LC-MS analysis; assay type: ADME
Liver microsome [4] = experiment: Drug metabolism in human liver microsomes assessed as 2-(1-(((1R)-1-(3-(2-(7-chloroquinolin-2-yl)vinyl)phenyl)-3-hydroxy-3-(2-(2-hydroxypropan-2-yl)phenyl)propylthio)methyl)cyclopropyl)acetic acid formation at 0.02 to 0.4 uM preincubated for 3 mins followed by beta-NADPH addition by LC-MS analysis; assay type: ADME
Liver microsome [5] = experiment: Drug metabolism in human liver microsomes assessed as 2-(1-(((1R)-1-(3-(2-(7-chloroquinolin-2-yl)vinyl)phenyl)-3-(2-(1,2-dihydroxypropan-2-yl)phenyl)propylthio)methyl)cyclopropyl)acetic acid formation at 0.02 to 0.4 uM preincubated for 3 mins followed by beta-NADPH addition by LC-MS analysis; assay type: ADME
Liver microsome [6] = experiment: Drug metabolism in human liver microsomes assessed as 2-(2-((R)-3-((1-(carboxymethyl)cyclopropyl)methylthio)-3-(3-(2-(7-chloroquinolin-2-yl)vinyl)phenyl)propyl)phenyl)-2-hydroxypropanoic acid formation at 0.02 to 0.4 uM preincubated for 3 mins followed by beta-NADPH addition by LC-MS analysis; assay type: ADME
Liver microsome [7] = experiment: (§1) Drug metabolism in human liver microsomes assessed as 2-(1-(((1R)-1-(3-(2-(7-chloroquinolin-2-yl)vinyl)phenyl)-3-hydroxy-3-(2-(2-hydroxypropan-2-yl)phenyl)propylthio)methyl)cyclopropyl)acetic acid formation at 0.4 uM after 15 mins by LC-MS analysis in presence of CYP3A4 inhibitor ketoconazole and troleandomycin; assay type: ADME; conditions: 0.25 h
[8] = Plasma protein binding in human; assay type: ADME, cell-free
[9] = Oral bioavailability in human at 10 mg administered through tablet; assay type: ADME, organism-based; conditions: in vivo
Liver microsome [10] = experiment: Drug metabolism in human liver microsomes at 1 to 10 uM preincubated for 3 mins followed by beta-NADPH addition by LC-MS analysis; assay type: ADME; conditions: TDE = time-dependent effect
Liver microsome [11] = experiment: (§2) Drug metabolism in human liver microsomes assessed as 2-(1-(((1R)-1-(3-(2-(7-chloroquinolin-2-yl)vinyl)phenyl)-3-(2-(1,2-dihydroxypropan-2-yl)phenyl)propylthio)methyl)cyclopropyl)acetic acid formation at 0.4 uM after 15 mins by LC-MS analysis in presence of CYP2C8 inhibitor gemfibrozil 1-O-beta glucuronide and trimethoprim, CYP2C9 inhibitor sulfaphenazole, and CYP2E1 inhibitor DDC; assay type: ADME; conditions: 0.25 h
Liver microsome [12] = experiment: Drug metabolism in human liver microsomes assessed as (R)-2-(1-((1-(3-(2-(7-chloroquinolin-2-yl)vinyl)phenyl)-3-(4-hydroxy-2-(2-hydroxypropan-2-yl)phenyl)propylthio)methyl)cyclopropyl)acetic acid formation at 0.4 uM after 15 mins by LC-MS analysis in presence of CYP2C8 inhibitor gemfibrozil 1-O-beta glucuronide, CYP2A6 inhibitor 8-methoxy-psoralen and DDC; assay type: ADME; conditions: 0.25 h
Liver microsome [13] = experiment: as §1, with “CYP1A2” for “CYP3A4”, “furafylline, CYP2B6 inhibitor clopidogrel, CYP2D6 inhibitor quinidine” for “ketoconazole”, “CYP2C9 inhibitor sulfaphenazole” for “troleandomycin”; assay type: ADME; conditions: 0.25 h
Liver microsome [14] = experiment: Drug metabolism in human liver microsomes assessed as 2-(1-(((1R)-1-(3-(2-(7-chloroquinolin-2-yl)vinyl)phenyl)-3-(2-(1,2-dihydroxypropan-2-yl)phenyl)propylthio)methyl)cyclopropyl)acetic acid formation at 0.4 uM after 15 mins by LC-MS analysis in presence of CYP1A2 inhibitor furafylline, CYP2B6 inhibitor clopidogrel, CYP2D6 inhibitor quinidine and CYP2C9 inhibitor sulfaphenazole; assay type: ADME; conditions: 0.25 h
Liver microsome [15] = experiment: Drug metabolism in human liver microsomes assessed as (R)-2-(1-((1-(3-(2-(7-chloroquinolin-2-yl)vinyl)phenyl)-3-(4-hydroxy-2-(2-hydroxypropan-2-yl)phenyl)propylthio)methyl)cyclopropyl)acetic acid formation at 0.4 uM after 15 mins by LC-MS analysis in presence of CYP1A2 inhibitor furafylline, CYP2B6 inhibitor clopidogrel, CYP2D6 inhibitor quinidine and CYP2C9 inhibitor sulfaphenazole; assay type: ADME; conditions: 0.25 h
Liver microsome [16] = experiment: as §2, with “0.05” for “0.4”, “and” for “and trimethoprim,”, “sulfaphenazole” for “sulfaphenazole, and CYP2E1 inhibitor DDC”; assay type: ADME; conditions: 0.25 h
Liver microsome [17] = experiment: Drug metabolism in human liver microsomes assessed as 2-(1-(((1R)-1-(3-(2-(7-chloroquinolin-2-yl)vinyl)phenyl)-3-hydroxy-3-(2-(2-hydroxypropan-2-yl)phenyl)propylthio)methyl)cyclopropyl)acetic acid formation at 0.1 uM after 12 mins by LC-MS analysis in presence of 2-(1-(((S)-1-(3-(2-(7-chloroquinolin-2-yl)vinyl)phenyl)-3-(2-(2-hydroxypropan-2-yl)phenyl)propylsulfinyl)methyl)cyclopropyl)acetic acid; assay type: ADME; conditions: 0.2 h
Liver microsome [18] = experiment: Drug metabolism in human liver microsomes assessed as 2-(1-(((1R)-1-(3-(2-(7-chloroquinolin-2-yl)vinyl)phenyl)-3-(2-(1,2-dihydroxypropan-2-yl)phenyl)propylthio)methyl)cyclopropyl)acetic acid formation at 0.1 uM after 12 mins by LC-MS analysis in presence of 2-(1-(((S)-1-(3-(2-(7-chloroquinolin-2-yl)vinyl)phenyl)-3-(2-(2-hydroxypropan-2-yl)phenyl)propylsulfinyl)methyl)cyclopropyl)acetic acid; assay type: ADME; conditions: 0.2 h
Liver microsome [19] = experiment: Drug metabolism in human liver microsomes assessed as (R)-2-(1-((1-(3-(2-(7-chloroquinolin-2-yl)vinyl)phenyl)-3-(4-hydroxy-2-(2-hydroxypropan-2-yl)phenyl)propylthio)methyl)cyclopropyl)acetic acid formation at 0.1 uM after 12 mins by LC-MS analysis in presence of 2-(1-(((S)-1-(3-(2-(7-chloroquinolin-2-yl)vinyl)phenyl)-3-(2-(2-hydroxypropan-2-yl)phenyl)propylsulfinyl)methyl)cyclopropyl)acetic acid; assay type: ADME; conditions: 0.2 h
Cytochrome P450 3A4 [20] = target: T1, Cytochrome P450 3A4 (Homo sapiens, UniProt P08684); experiment: (§3) Activity of recombinant human CYP3A4 expressed in microsomes isolated from baculovirus infected insect cell assessed as enzyme-mediated (R)-2-(1-((1-(3-(2-(7-chloroquinolin-2-yl)vinyl)phenyl)-3-(4-hydroxy-2-(2-hydroxypropan-2-yl)phenyl)propylthio)methyl)cyclopropyl)acetic acid formation at 1 uM after 60 mins by LC-MS analysis; conditions: 1 h
Cytochrome P450 2C19 = Cytochrome P450 2C19 (Homo sapiens, UniProt P33261); experiment: as §3, with “CYP2C19” for “CYP3A4”; assay type: ADME; conditions: 1 h
Cytochrome P450 3A4 [21] = target: T1, Cytochrome P450 3A4; experiment: Activity of recombinant human CYP3A4 expressed in microsomes isolated from baculovirus infected insect cell assessed as enzyme-mediated compound depletion at 0.02 uM after 30 mins by LC-MS analysis; conditions: 0.5 h
Cytochrome P450 2A6 [22] = target: T2, Cytochrome P450 2A6 (Homo sapiens, UniProt P11509); experiment: Activity of recombinant human CYP2A6 expressed in microsomes isolated from baculovirus infected insect cell assessed as enzyme-mediated compound depletion at 0.02 uM after 30 mins by LC-MS analysis; assay type: ADME; conditions: 0.5 h
T2 sequence (P11509 whole entry): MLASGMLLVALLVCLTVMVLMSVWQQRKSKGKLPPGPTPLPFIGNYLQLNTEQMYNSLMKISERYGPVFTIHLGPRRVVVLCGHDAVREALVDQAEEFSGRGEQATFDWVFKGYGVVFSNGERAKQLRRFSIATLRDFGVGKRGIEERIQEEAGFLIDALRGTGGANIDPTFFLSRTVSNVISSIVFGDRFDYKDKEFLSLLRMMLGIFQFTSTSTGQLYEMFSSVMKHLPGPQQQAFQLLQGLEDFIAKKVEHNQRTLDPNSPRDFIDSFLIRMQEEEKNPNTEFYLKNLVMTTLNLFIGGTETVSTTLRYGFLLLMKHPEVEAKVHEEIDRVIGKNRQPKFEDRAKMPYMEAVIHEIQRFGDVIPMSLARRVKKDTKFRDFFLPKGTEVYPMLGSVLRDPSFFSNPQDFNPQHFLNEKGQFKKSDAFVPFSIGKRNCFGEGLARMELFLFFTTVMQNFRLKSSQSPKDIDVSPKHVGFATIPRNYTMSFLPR

Cytochrome P450 2A6 [23] = target: T2, Cytochrome P450 2A6; experiment: Activity of recombinant human CYP2A6 expressed in microsomes isolated from baculovirus infected insect cell assessed as enzyme-mediated metabolite formation at 10 uM after 60 mins by LC-MS analysis; assay type: ADME; conditions: 1 h
Cytochrome P450 2C9 = Cytochrome P450 2C9 (Homo sapiens, UniProt P11712); experiment: Inhibition of recombinant human CYP2C9 expressed in microsomes isolated from baculovirus infected insect cell after 10 mins
Cytochrome P450 3A4 [24] = target: T1, Cytochrome P450 3A4; experiment: Activity of recombinant human CYP3A4 expressed in microsomes isolated from baculovirus infected insect cell assessed as enzyme-mediated 2-(1-(((1R)-1-(3-(2-(7-chloroquinolin-2-yl)vinyl)phenyl)-3-hydroxy-3-(2-(2-hydroxypropan-2-yl)phenyl)propylthio)methyl)cyclopropyl)acetic acid formation at 1 uM after 60 mins by LC-MS analysis; conditions: 1 h
Plasma [25] = experiment: Fraction unbound in human plasma; assay type: ADME, cell-free
[26] = Cmax in human at 10 mg, po; assay type: ADME, organism-based; parameters: dose 10 mg, route oral; conditions: in vivo
Plasma [27] = experiment: Unbound plasma concentration in human at 10 mg, po; assay type: ADME, cell-free
[28] = Plasma clearance in human at 3 to 18 mg, iv; assay type: ADME, organism-based

T1 sequence (P08684 whole entry): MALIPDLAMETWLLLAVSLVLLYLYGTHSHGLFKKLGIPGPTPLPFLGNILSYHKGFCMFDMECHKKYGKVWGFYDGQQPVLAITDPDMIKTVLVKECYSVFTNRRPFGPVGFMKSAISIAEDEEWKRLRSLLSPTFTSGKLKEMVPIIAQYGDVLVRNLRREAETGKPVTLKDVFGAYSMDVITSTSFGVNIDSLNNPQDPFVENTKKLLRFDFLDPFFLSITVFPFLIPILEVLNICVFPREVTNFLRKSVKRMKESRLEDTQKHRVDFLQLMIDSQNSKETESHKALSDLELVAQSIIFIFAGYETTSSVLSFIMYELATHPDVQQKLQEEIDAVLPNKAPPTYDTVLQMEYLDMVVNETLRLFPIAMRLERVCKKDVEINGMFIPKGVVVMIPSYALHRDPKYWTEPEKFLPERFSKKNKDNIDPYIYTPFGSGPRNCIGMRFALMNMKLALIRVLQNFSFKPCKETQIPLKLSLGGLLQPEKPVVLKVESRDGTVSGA
Cytochrome P450 2C19, sequence (P33261 whole entry): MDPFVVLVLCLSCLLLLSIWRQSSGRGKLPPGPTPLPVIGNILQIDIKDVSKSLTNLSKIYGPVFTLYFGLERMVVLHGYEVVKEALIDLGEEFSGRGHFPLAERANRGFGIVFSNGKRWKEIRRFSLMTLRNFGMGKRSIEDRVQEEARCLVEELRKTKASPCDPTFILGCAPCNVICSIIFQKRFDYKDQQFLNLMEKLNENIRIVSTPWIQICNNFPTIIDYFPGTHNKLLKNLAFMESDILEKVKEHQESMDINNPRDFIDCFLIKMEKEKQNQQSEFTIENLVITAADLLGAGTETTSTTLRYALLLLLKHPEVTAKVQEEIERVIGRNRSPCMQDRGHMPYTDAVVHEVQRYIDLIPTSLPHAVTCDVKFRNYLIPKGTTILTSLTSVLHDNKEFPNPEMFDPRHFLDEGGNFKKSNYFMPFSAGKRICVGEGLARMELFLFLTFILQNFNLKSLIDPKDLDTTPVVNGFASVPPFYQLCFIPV
Cytochrome P450 2C9, sequence (P11712 whole entry): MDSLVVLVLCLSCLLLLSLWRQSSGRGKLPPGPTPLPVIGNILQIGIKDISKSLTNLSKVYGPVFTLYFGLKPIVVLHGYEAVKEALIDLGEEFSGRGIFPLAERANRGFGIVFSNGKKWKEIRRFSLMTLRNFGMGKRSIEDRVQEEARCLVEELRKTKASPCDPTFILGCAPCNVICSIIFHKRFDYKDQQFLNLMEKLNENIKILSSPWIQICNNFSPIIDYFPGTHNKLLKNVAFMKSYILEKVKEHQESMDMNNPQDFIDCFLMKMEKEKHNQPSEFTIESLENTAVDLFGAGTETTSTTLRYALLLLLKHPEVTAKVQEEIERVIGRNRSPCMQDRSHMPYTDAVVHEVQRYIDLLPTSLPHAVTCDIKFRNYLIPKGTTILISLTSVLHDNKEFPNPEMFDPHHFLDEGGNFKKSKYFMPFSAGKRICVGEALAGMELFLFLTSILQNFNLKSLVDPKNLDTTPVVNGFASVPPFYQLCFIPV

CC(C)(O)c1ccccc1CC[C@@H](SCC1(CC(=O)[O-])CC1)c1cccc(/C=C/c2ccc3ccc(Cl)cc3n2)c1.[Na+] [MONTELUKAST SODIUM]
0.4%: Fu (Plasma [25])
60%: bioavailability [9]
metabolite_not_detected: Drug metabolism (Liver microsome [1]) | Drug metabolism (Liver microsome [7]) | Drug metabolism (Liver microsome [11]) | Drug metabolism (Liver microsome [12]) | Drug metabolism (Liver microsome [16]) | Drug metabolism (Liver microsome [18]) | Drug metabolism (Liver microsome [19])
500 ng/mL: Cmax [26]
0.578 mL/min/kg: clearance [28]
5.13: pKi (Cytochrome P450 2C9)
3 nM: Cp(f) (Plasma [27])
< 0.01: fraction unbound [8]
tde: Drug metabolism (Liver microsome [10])
metabolite_detected: Drug metabolism (Liver microsome [2]) | Drug metabolism (Liver microsome [3]) | Drug metabolism (Liver microsome [4]) | Drug metabolism (Liver microsome [5]) | Drug metabolism (Liver microsome [6]) | Drug metabolism (Liver microsome [13]) | Drug metabolism (Liver microsome [14]) | Drug metabolism (Liver microsome [15]) | Drug metabolism (Liver microsome [17]) | Drug metabolism (Cytochrome P450 3A4 [20]) | Drug metabolism (Cytochrome P450 2C19) | Drug metabolism (Cytochrome P450 3A4 [21]) | Drug metabolism (Cytochrome P450 2A6 [22]) | Drug metabolism (Cytochrome P450 2A6 [23]) | Drug metabolism (Cytochrome P450 3A4 [24])
